EPA's ToxValDB 9.5

Tested on: Rattus norvegicus
Settings: short-term, duration: 28 days, oral, gavage, Sprague-Dawley

Structure (SMILES): O=C(O)C(F)(F)C(F)(F)C(F)(F)C(F)(F)C(F)(F)C(F)(F)C(F)(F)C(F)(F)C(F)(F)F [Perfluorodecanoic acid]
- LOEL (F, Clinical chemistry_Alanine aminotransferase): 1.25 mg/kg-day
- NOEL (F, Clinical chemistry_Albumin): 2.5 mg/kg-day
- LOEL (F, Clinical chemistry_Albumin/globulin ratio): 0.312 mg/kg-day
- LOEL (F, Clinical chemistry_Alkaline phosphatase): 0.312 mg/kg-day
- LOEL (F, Clinical chemistry_Aspartate aminotransferase): 1.25 mg/kg-day
- LOEL (F, Clinical chemistry_Cholesterol): 2.5 mg/kg-day
- LOEL (F, Clinical chemistry_Creatinine kinase): 1.25 mg/kg-day
- LOEL (F, Clinical chemistry_Direct bilirubin): 1.25 mg/kg-day
- LOEL (F, Clinical chemistry_Free thyroxine): 1.25 mg/kg-day
- LOEL (F, Clinical chemistry_Globulin): 0.312 mg/kg-day
- LOEL (F, Clinical chemistry_Indirect bilirubin): 2.5 mg/kg-day
- LOEL (F, Clinical chemistry_Sorbitol dehydrogenase): 2.5 mg/kg-day
- LOEL (F, Clinical chemistry_Testosterone): 0.312 mg/kg-day
- NOEL (F, Clinical chemistry_Thyroid stimulating hormone): 2.5 mg/kg-day
- LOEL (F, Clinical chemistry_Total bile acids): 1.25 mg/kg-day
- LOEL (F, Clinical chemistry_Total bilirubin): 1.25 mg/kg-day
- NOEL (F, Clinical chemistry_Total protein): 2.5 mg/kg-day
- NOEL (F, Clinical chemistry_Total thyroxine): 2.5 mg/kg-day
- LOEL (F, Clinical chemistry_Total triiodothyronine): 1.25 mg/kg-day
- NOEL (F, Clinical chemistry_Triglycerides): 2.5 mg/kg-day
- LOEL (F, Gene expression_Acox1): 0.156 mg/kg-day
- LOEL (F, Gene expression_Cyp2b1): 0.156 mg/kg-day
- LOEL (F, Gene expression_Cyp2b2): 0.156 mg/kg-day
- LOEL (F, Gene expression_Cyp4a1): 0.625 mg/kg-day
- LOEL (F, Hematology_Erythrocytes): 1.25 mg/kg-day
- LOEL (F, Hematology_Hematocrit): 1.25 mg/kg-day
- LOEL (F, Hematology_Hemoglobin): 1.25 mg/kg-day
- LOEL (F, Hematology_Mean corpuscular hemoglobin concentration): 2.5 mg/kg-day
- LOEL (F, Hematology_Mean corpuscular volume): 1.25 mg/kg-day
- LOEL (F, Hematology_Platelets): 2.5 mg/kg-day
- LOEL (F, Hematology_Reticulocytes): 1.25 mg/kg-day
- LOEL (F, Nonneoplastic effects_Bone marrow - Hypocellularity): 2.5 mg/kg-day
- NOEL (F, Nonneoplastic effects_Forestomach - Epithelium, hyperplasia): 2.5 mg/kg-day
- NOEL (F, Nonneoplastic effects_Forestomach - Inflammation, chronic active): 2.5 mg/kg-day
- NOEL (F, Nonneoplastic effects_Kidney - Nephropathy, chronic progressive): 2.5 mg/kg-day
- LOEL (F, Nonneoplastic effects_Liver - Hepatocyte, Necrosis): 2.5 mg/kg-day
- LOEL (F, Nonneoplastic effects_Liver - Hepatocyte, cytoplasmic alteration): 0.625 mg/kg-day
- LOEL (F, Nonneoplastic effects_Liver - Hepatocyte, hypertrophy): 1.25 mg/kg-day
- LOEL (F, Nonneoplastic effects_Liver - Hepatocyte, vacuolization cytoplasmic): 2.5 mg/kg-day
- NOEL (F, Nonneoplastic effects_Lymph nodes - Mandibular, atrophy): 2.5 mg/kg-day
- NOEL (F, Nonneoplastic effects_Lymph nodes - Mesenteric, atrophy): 2.5 mg/kg-day
- NOEL (F, Nonneoplastic effects_Nose - Olfactory epithelium, degeneration): 2.5 mg/kg-day
- NOEL (F, Nonneoplastic effects_Nose - Olfactory epithelium, hyperplasia): 2.5 mg/kg-day
- NOEL (F, Nonneoplastic effects_Nose - Olfactory epithelium, inflammation, suppurative): 2.5 mg/kg-day
- NOEL (F, Nonneoplastic effects_Nose - Respiratory epithelium, hyperplasia): 2.5 mg/kg-day
- NOEL (F, Nonneoplastic effects_Nose - Respiratory epithelium, inflammation, chronic active): 2.5 mg/kg-day
- NOEL (F, Nonneoplastic effects_Spleen - Atrophy): 2.5 mg/kg-day
- NOEL (F, Nonneoplastic effects_Spleen - Extramedullary hematopoiesis, increased): 2.5 mg/kg-day
- LOEL (F, Nonneoplastic effects_Thymus - Atrophy): 2.5 mg/kg-day
- NOEL (F, Nonneoplastic effects_Thymus - Lymphocyte, apoptosis): 2.5 mg/kg-day
- NOEL (F, Nonneoplastic effects_Thyroid gland - Follicular cell hypertrophy): 2.5 mg/kg-day
- LOEL (F, Organ weights_Liver - Absolute): 0.156 mg/kg-day
- LOEL (F, Organ weights_Liver - Relative): 0.156 mg/kg-day
- LOEL (F, Organ weights_R. adrenal gland - Absolute): 2.5 mg/kg-day
- NOEL (F, Organ weights_R. adrenal gland - Relative): 2.5 mg/kg-day
- LOEL (F, Organ weights_R. kidney - Absolute): 2.5 mg/kg-day
- LOEL (F, Organ weights_R. kidney - Relative): 0.625 mg/kg-day
- LOEL (F, Organ weights_Spleen - Absolute): 1.25 mg/kg-day
- LOEL (F, Organ weights_Spleen - Relative): 0.625 mg/kg-day
- LOEL (F, Organ weights_Thymus - Absolute): 2.5 mg/kg-day
- LOEL (F, Organ weights_Thymus - Relative): 2.5 mg/kg-day
- LOEL (F, Organ weights_Thyroid gland - Absolute): 0.312 mg/kg-day
- LOEL (F, Organ weights_Thyroid gland - Relative): 0.312 mg/kg-day
- LOEL (F, Reproductive toxicity_Altered estrous cyclicity): 1.25 mg/kg-day
- NOEL (F, Survival rates): 2.5 mg/kg-day
- LOEL (F, body weight): 1.25 mg/kg-day
- LOEL (M, Clinical chemistry_Alanine aminotransferase): 0.312 mg/kg-day
- LOEL (M, Clinical chemistry_Albumin): 1.25 mg/kg-day
- LOEL (M, Clinical chemistry_Albumin/globulin ratio): 0.156 mg/kg-day
- LOEL (M, Clinical chemistry_Alkaline phosphatase): 0.312 mg/kg-day
- LOEL (M, Clinical chemistry_Aspartate aminotransferase): 0.156 mg/kg-day
- LOEL (M, Clinical chemistry_Cholesterol): 0.156 mg/kg-day
- NOEL (M, Clinical chemistry_Creatinine kinase): 2.5 mg/kg-day
- LOEL (M, Clinical chemistry_Direct bilirubin): 1.25 mg/kg-day
- LOEL (M, Clinical chemistry_Free thyroxine): 0.312 mg/kg-day
- LOEL (M, Clinical chemistry_Globulin): 0.156 mg/kg-day
- LOEL (M, Clinical chemistry_Indirect bilirubin): 1.25 mg/kg-day
- NOEL (M, Clinical chemistry_Sorbitol dehydrogenase): 2.5 mg/kg-day
- LOEL (M, Clinical chemistry_Testosterone): 1.25 mg/kg-day
- NOEL (M, Clinical chemistry_Thyroid stimulating hormone): 2.5 mg/kg-day
- LOEL (M, Clinical chemistry_Total bile acids): 1.25 mg/kg-day
- LOEL (M, Clinical chemistry_Total bilirubin): 1.25 mg/kg-day
- LOEL (M, Clinical chemistry_Total protein): 0.156 mg/kg-day
- NOEL (M, Clinical chemistry_Total thyroxine): 2.5 mg/kg-day
- NOEL (M, Clinical chemistry_Total triiodothyronine): 2.5 mg/kg-day
- LOEL (M, Clinical chemistry_Triglycerides): 1.25 mg/kg-day
- LOEL (M, Gene expression_Acox1): 0.156 mg/kg-day
- LOEL (M, Gene expression_Acyl-CoA oxidase): 0.156 mg/kg-day
- LOEL (M, Gene expression_Cyp2b1): 0.156 mg/kg-day
- LOEL (M, Gene expression_Cyp2b2): 0.156 mg/kg-day
- LOEL (M, Gene expression_Cyp4a1): 0.156 mg/kg-day
- LOEL (M, Hematology_Erythrocytes): 2.5 mg/kg-day
- NOEL (M, Hematology_Hematocrit): 2.5 mg/kg-day
- NOEL (M, Hematology_Hemoglobin): 2.5 mg/kg-day
- LOEL (M, Hematology_Mean corpuscular hemoglobin concentration): 0.625 mg/kg-day
- LOEL (M, Hematology_Mean corpuscular volume): 1.25 mg/kg-day
- NOEL (M, Hematology_Platelets): 2.5 mg/kg-day
- LOEL (M, Hematology_Reticulocytes): 1.25 mg/kg-day
- LOEL (M, Nonneoplastic effects_Bone marrow - Hypocellularity): 2.5 mg/kg-day
- LOEL (M, Nonneoplastic effects_Epididymis - Duct, exfoliated germ cell): 2.5 mg/kg-day
- NOEL (M, Nonneoplastic effects_Epididymis - Epithelium, apoptosis): 2.5 mg/kg-day
- NOEL (M, Nonneoplastic effects_Epididymis - Hypospermia): 2.5 mg/kg-day
- NOEL (M, Nonneoplastic effects_Forestomach - Epithelium, hyperplasia): 2.5 mg/kg-day
- NOEL (M, Nonneoplastic effects_Forestomach - Inflammation, chronic active): 2.5 mg/kg-day
- NOEL (M, Nonneoplastic effects_Kidney - Nephropathy, chronic progressive): 2.5 mg/kg-day
- NOEL (M, Nonneoplastic effects_Liver - Hepatocyte, Necrosis): 2.5 mg/kg-day
- LOEL (M, Nonneoplastic effects_Liver - Hepatocyte, cytoplasmic alteration): 0.625 mg/kg-day
- LOEL (M, Nonneoplastic effects_Liver - Hepatocyte, hypertrophy): 1.25 mg/kg-day
- LOEL (M, Nonneoplastic effects_Liver - Hepatocyte, vacuolization cytoplasmic): 1.25 mg/kg-day
- NOEL (M, Nonneoplastic effects_Lymph nodes - Mandibular, atrophy): 2.5 mg/kg-day
- NOEL (M, Nonneoplastic effects_Lymph nodes - Mesenteric, atrophy): 2.5 mg/kg-day
- NOEL (M, Nonneoplastic effects_Nose - Olfactory epithelium, degeneration): 2.5 mg/kg-day
- NOEL (M, Nonneoplastic effects_Nose - Olfactory epithelium, hyperplasia): 2.5 mg/kg-day
- NOEL (M, Nonneoplastic effects_Nose - Olfactory epithelium, inflammation, suppurative): 2.5 mg/kg-day
- NOEL (M, Nonneoplastic effects_Nose - Respiratory epithelium, hyperplasia): 2.5 mg/kg-day
- NOEL (M, Nonneoplastic effects_Nose - Respiratory epithelium, inflammation, chronic active): 2.5 mg/kg-day
- NOEL (M, Nonneoplastic effects_Spleen - Atrophy): 2.5 mg/kg-day
- NOEL (M, Nonneoplastic effects_Spleen - Extramedullary hematopoiesis, increased): 2.5 mg/kg-day
- LOEL (M, Nonneoplastic effects_Testes - Germinal epithelium, degeneration): 2.5 mg/kg-day
- LOEL (M, Nonneoplastic effects_Testes - Interstitial cell, atrophy): 1.25 mg/kg-day
- LOEL (M, Nonneoplastic effects_Testes - Seminiferous tubule, spermatid retention): 2.5 mg/kg-day
- LOEL (M, Nonneoplastic effects_Thymus - Atrophy): 2.5 mg/kg-day
- LOEL (M, Nonneoplastic effects_Thymus - Lymphocyte, apoptosis): 1.25 mg/kg-day
- NOEL (M, Nonneoplastic effects_Thyroid gland - Follicular cell hypertrophy): 2.5 mg/kg-day
- LOEL (M, Organ weights_Liver - Absolute): 0.156 mg/kg-day
- LOEL (M, Organ weights_Liver - Relative): 0.156 mg/kg-day
- LOEL (M, Organ weights_R. adrenal gland - Absolute): 0.156 mg/kg-day
- LOEL (M, Organ weights_R. adrenal gland - Relative): 2.5 mg/kg-day
- LOEL (M, Organ weights_R. kidney - Absolute): 2.5 mg/kg-day
- LOEL (M, Organ weights_R. kidney - Relative): 0.625 mg/kg-day
- LOEL (M, Organ weights_R. testis - Absolute): 2.5 mg/kg-day
- LOEL (M, Organ weights_Spleen - Absolute): 1.25 mg/kg-day
- LOEL (M, Organ weights_Spleen - Relative): 2.5 mg/kg-day
- LOEL (M, Organ weights_Thymus - Absolute): 1.25 mg/kg-day
- LOEL (M, Organ weights_Thymus - Relative): 1.25 mg/kg-day
- NOEL (M, Organ weights_Thyroid gland - Absolute): 2.5 mg/kg-day
- LOEL (M, Organ weights_Thyroid gland - Relative): 1.25 mg/kg-day
- LOEL (M, Reproductive toxicity_Altered sperm parameters): 2.5 mg/kg-day
- NOEL (M, Survival rates): 2.5 mg/kg-day
- LOEL (M, body weight): 1.25 mg/kg-day
